Our source for the IC50 values is patent publication US20230148214A1, “INDAZOLES AND AZAINDAZOLES AS LRRK2 INHIBITORS” (ESCAPE Bio, Inc., priority 2020, published 2023).

Each structure is given as a SMILES string. Some results are limits rather than exact numbers.

Assay [1] addresses T1, LRRK2 WT (Homo sapiens, UniProt Q5S007).
T1 construct: purchased Life Technologies PR8604B
The assay is described as follows: LRRK2 Kinase Activity Assay (LanthaScreen TR-FRET), wild type. Format: biochemical. The conditions noted are these: recombinant wild type LRRK2, 25 μM ATP, 400 nM LRRKtide, 60 min; class symbols. Put shortly:
(§1)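 Recombinant wild-type or G2019S LRRK2 incubated with fluorescein-labeled LRRKtide (ERM-based) peptide, ATP and serially diluted compound for 60 min at room temperature.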

For assay [2], the target named is T2, LRRK2 G2019S (Homo sapiens, UniProt Q5S007, G2019S).
T2 construct: purchased Life Technologies PV4881
T2 sequence (Q5S007 whole entry G2019S): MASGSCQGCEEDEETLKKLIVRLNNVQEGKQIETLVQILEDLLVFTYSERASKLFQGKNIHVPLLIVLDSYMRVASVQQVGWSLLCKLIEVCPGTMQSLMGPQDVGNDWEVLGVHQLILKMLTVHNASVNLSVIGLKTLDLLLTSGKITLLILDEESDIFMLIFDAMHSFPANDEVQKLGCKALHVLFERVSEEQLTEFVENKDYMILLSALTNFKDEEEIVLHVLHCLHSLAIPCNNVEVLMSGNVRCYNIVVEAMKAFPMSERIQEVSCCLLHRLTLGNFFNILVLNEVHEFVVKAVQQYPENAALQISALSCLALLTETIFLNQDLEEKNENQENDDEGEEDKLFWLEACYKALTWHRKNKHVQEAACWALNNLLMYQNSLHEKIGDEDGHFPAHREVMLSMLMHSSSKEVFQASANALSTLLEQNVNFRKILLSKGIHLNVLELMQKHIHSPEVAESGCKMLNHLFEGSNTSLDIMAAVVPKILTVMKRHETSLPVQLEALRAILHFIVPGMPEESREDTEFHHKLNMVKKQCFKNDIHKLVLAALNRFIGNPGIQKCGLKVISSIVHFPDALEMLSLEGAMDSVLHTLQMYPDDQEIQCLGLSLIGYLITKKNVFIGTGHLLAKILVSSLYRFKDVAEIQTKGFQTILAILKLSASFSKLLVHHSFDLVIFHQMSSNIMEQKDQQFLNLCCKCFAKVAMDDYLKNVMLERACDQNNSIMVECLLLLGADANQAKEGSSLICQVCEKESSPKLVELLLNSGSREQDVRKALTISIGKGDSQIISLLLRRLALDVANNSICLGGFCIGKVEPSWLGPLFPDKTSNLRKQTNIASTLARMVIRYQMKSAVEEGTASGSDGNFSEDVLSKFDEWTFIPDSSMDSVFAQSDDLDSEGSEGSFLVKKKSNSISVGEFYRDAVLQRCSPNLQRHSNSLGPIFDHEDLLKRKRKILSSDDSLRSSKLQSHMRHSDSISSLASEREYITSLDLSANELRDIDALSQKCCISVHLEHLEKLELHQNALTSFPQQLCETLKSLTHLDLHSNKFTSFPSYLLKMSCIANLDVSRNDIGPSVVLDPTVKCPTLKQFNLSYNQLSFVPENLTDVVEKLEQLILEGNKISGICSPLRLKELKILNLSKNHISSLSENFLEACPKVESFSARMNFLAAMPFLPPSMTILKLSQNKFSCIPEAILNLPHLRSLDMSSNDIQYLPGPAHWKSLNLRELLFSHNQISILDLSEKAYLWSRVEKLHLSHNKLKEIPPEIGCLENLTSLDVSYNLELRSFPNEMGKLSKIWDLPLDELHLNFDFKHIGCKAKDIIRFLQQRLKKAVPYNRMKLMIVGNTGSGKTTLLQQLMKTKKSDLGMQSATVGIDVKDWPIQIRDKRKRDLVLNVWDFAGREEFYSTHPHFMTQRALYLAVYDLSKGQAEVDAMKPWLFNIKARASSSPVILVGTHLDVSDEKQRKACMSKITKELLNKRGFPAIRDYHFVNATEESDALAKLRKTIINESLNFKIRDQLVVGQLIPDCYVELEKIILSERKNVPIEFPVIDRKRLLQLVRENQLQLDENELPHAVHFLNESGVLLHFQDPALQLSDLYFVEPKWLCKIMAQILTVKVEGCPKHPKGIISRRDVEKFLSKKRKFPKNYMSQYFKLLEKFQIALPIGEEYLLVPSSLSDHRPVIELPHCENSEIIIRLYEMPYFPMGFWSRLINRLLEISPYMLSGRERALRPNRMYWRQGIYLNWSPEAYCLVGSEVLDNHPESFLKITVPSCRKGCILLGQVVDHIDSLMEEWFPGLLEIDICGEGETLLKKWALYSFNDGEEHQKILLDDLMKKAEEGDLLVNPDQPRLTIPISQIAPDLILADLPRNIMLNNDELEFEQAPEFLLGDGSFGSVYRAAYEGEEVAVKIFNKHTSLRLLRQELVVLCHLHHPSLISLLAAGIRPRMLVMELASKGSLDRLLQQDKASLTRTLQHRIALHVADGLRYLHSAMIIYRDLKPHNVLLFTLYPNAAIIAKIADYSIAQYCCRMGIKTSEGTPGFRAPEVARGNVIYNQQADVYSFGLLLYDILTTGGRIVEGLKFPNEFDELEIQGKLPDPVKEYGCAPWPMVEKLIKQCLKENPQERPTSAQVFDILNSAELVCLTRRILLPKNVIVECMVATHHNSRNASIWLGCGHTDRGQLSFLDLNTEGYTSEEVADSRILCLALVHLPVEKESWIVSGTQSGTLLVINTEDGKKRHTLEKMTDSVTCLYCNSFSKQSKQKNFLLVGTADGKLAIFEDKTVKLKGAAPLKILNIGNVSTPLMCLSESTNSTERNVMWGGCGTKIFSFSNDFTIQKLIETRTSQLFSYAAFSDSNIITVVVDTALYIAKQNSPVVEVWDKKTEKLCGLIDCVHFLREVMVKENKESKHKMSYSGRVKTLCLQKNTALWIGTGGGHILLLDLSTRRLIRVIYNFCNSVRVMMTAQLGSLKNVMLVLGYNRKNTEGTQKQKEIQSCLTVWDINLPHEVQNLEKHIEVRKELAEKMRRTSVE
As to the kind of experiment: LRRK2 Kinase Activity Assay (LanthaScreen TR-FRET), G2019S. The assay is classed as biochemical. Particulars: recombinant G2019S-LRRK2, 25 μM ATP, 400 nM LRRKtide, 60 min; class symbols. An outline of the steps: as §1
Background: Time-resolved FRET reads energy transfer from a long-lived donor to a nearby acceptor.

T1 sequence (Q5S007 whole entry): as the sequence (Q5S007 whole entry G2019S) above, with S2019G counted along it

What is called IC50 is the concentration that gives 50% inhibition. As for `COc1c(C#N)ccc2c1CCC[C@@H]2Nc1ccc2[nH]nc(-c3cnco3)c2c1` (single isomer, unassigned) [Example 101, enantiomer 1, 1-Methoxy-5-{[3-(1,3-oxazol-5-yl)-1H-indazol-5-yl]amino}-5,6,7,8-tetrahydronaphthalene-2-carbonitrile], the IC50 in assay [1] and in assay [2] was less than 100 nM each time.
In the case of `COc1nc2c(cc1C#N)CCC[C@@H]2Nc1ccc2[nH]nc(-c3cnco3)c2c1` (single isomer, unassigned) [Example 102, enantiomer 1, 2-Methoxy-8-((3-(oxazol-5-yl)-1H-indazol-5-yl)amino)-5,6,7,8-tetrahydroquinoline-3-carbonitrile], the IC50 in assay [1] and in assay [2] was less than 100 nM each time.
Take `COc1nc2c(cc1C#N)CCC[C@@H]2Nc1ccc2[nH]nc(-c3cnco3)c2c1` (single isomer, unassigned) [Example 102, enantiomer 2, 2-Methoxy-8-((3-(oxazol-5-yl)-1H-indazol-5-yl)amino)-5,6,7,8-tetrahydroquinoline-3-carbonitrile]: the IC50 was 1000 to 10000 nM in assay [1] and 100 to 1000 nM in assay [2].
In the case of `N#Cc1cnc2c(c1)CC[C@@H]2Oc1ccc2[nH]nc(-c3cnco3)c2c1` (single isomer, unassigned) [Example 103, enantiomer 1, 7-((3-(Oxazol-5-yl)-1H-indazol-5-yl)oxy)-6,7-dihydro-5H-cyclopenta[b]pyridine-3-carbonitrile], the IC50 in assay [1] and in assay [2] was less than 100 nM each time.
For `N#Cc1ccc2c(c1)CCCC[C@@H]2Nc1ccc2[nH]nc(-c3cnco3)c2c1` (single isomer, unassigned) [Example 104, enantiomer 1, 5-((3-(Oxazol-5-yl)-1H-indazol-5-yl)amino)-6,7,8,9-tetrahydro-5H-benzo[7]annulene-2-carbonitrile], the IC50 in assay [1] and in assay [2] was less than 100 nM in each case.
As to `N#Cc1ccc2c(c1)CCCC[C@@H]2Nc1ccc2[nH]nc(-c3cnco3)c2c1` (single isomer, unassigned) [Example 104, enantiomer 2, 5-((3-(Oxazol-5-yl)-1H-indazol-5-yl)amino)-6,7,8,9-tetrahydro-5H-benzo[7]annulene-2-carbonitrile], the IC50 in assay [1] and in assay [2] was 100 to 1000 nM in each case.
Consider `CC1(C)C[C@H](Nc2ccc3[nH]nc(-c4cnco4)c3c2)c2ccc(C#N)cc21` (single isomer, unassigned) [Example 105, enantiomer 1, 3,3-Dimethyl-1-((3-(oxazol-5-yl)-1H-indazol-5-yl)amino)-2,3-dihydro-1H-indene-5-carbonitrile], for which the IC50 in assay [1] was 100 to 1000 nM; in assay [2] it was less than 100 nM.
As to `CC1(C)C[C@H](Nc2ccc3[nH]nc(-c4cnco4)c3c2)c2ccc(C#N)cc21` (single isomer, unassigned) [Example 105, enantiomer 2, 3,3-Dimethyl-1-((3-(oxazol-5-yl)-1H-indazol-5-yl)amino)-2,3-dihydro-1H-indene-5-carbonitrile], the IC50 in assay [1] is 100 to 1000 nM; in assay [2], less than 100 nM.
For `Cc1nc2c(cc1C#N)CCC[C@@H]2Nc1ccc2[nH]nc(-c3cnco3)c2c1` (single isomer, unassigned) [Example 106, enantiomer 1, 2-Methyl-8-((3-(oxazol-5-yl)-1H-indazol-5-yl)amino)-5,6,7,8-tetrahydroquinoline-3-carbonitrile], in that order: 100 to 1000 nM and less than 100 nM.
Turning to `Cc1c(C#N)cnc2c1CC[C@@H]2Oc1ccc2[nH]nc(-c3cnco3)c2c1` (single isomer, unassigned) [Example 107, enantiomer 1, 4-Methyl-7-((3-(oxazol-5-yl)-1H-indazol-5-yl)oxy)-6,7-dihydro-5H-cyclopenta[b]pyridine-3-carbonitrile], the IC50 in assay [1] and in assay [2] was less than 100 nM in each case.
Take `Cc1c(C#N)cnc2c1CC[C@@H]2Oc1ccc2[nH]nc(-c3cnco3)c2c1` (single isomer, unassigned) [Example 107, enantiomer 2, 4-Methyl-7-((3-(oxazol-5-yl)-1H-indazol-5-yl)oxy)-6,7-dihydro-5H-cyclopenta[b]pyridine-3-carbonitrile]: the IC50 was 100 to 1000 nM in assay [1] and less than 100 nM in assay [2].
Turning to `Cc1c(C#N)cnc2c1CC[C@@H]2Nc1ccc2[nH]nc(-c3cnco3)c2c1` (single isomer, unassigned) [Example 108, enantiomer 1, 4-Methyl-7-((3-(oxazol-5-yl)-1H-indazol-5-yl)amino)-6,7-dihydro-5H-cyclopenta[b]pyridine-3-carbonitrile], the results for the IC50 in assay [1] and in assay [2] were 100 to 1000 nM and less than 100 nM, respectively.
On to `N#Cc1cnc2c(c1)CC[C@@H]2Nc1ccc2[nH]nc(-c3cnco3)c2c1` (single isomer, unassigned) [Example 109, enantiomer 1, 7-((3-(Oxazol-5-yl)-1H-indazol-5-yl)amino)-6,7-dihydro-5H-cyclopenta[b]pyridine-3-carbonitrile], for which the IC50 in assay [1] and in assay [2] was less than 100 nM each time.
As to `N#Cc1cnc2c(c1)CC[C@@H]2Nc1ccc2[nH]nc(-c3cnco3)c2c1` (single isomer, unassigned) [Example 109, enantiomer 2, 7-((3-(Oxazol-5-yl)-1H-indazol-5-yl)amino)-6,7-dihydro-5H-cyclopenta[b]pyridine-3-carbonitrile], the IC50 in assay [1] is 100 to 1000 nM; in assay [2] it was less than 100 nM.
For `Cc1cc2c(cc1C#N)CCC[C@@H]2Nc1ccc2[nH]nc(-c3cnco3)c2c1` (single isomer, unassigned) [Example 110, enantiomer 1, 3-Methyl-5-((3-(oxazol-5-yl)-1H-indazol-5-yl)amino)-5,6,7,8-tetrahydronaphthalene-2-carbonitrile], the IC50 in assay [1] and in assay [2] was less than 100 nM throughout.
In the case of `Cc1cc2c(cc1C#N)CCC[C@@H]2Nc1ccc2[nH]nc(-c3cnco3)c2c1` (single isomer, unassigned) [Example 110, enantiomer 2, 3-Methyl-5-((3-(oxazol-5-yl)-1H-indazol-5-yl)amino)-5,6,7,8-tetrahydronaphthalene-2-carbonitrile], the values for the IC50 in assay [1] and in assay [2] were 100 to 1000 nM and less than 100 nM, respectively.
In the case of `CN(c1ccc2[nH]nc(-c3cnco3)c2c1)[C@H]1CCc2cc(C#N)ccc21` (single isomer, unassigned) [Example 111, enantiomer 1, 1-(Methyl(3-(oxazol-5-yl)-1H-indazol-5-yl)amino)-2,3-dihydro-1H-indene-5-carbonitrile], the IC50 in assay [1] and in assay [2] was less than 100 nM in each case.
As to `CN(c1ccc2[nH]nc(-c3cnco3)c2c1)[C@H]1CCc2cc(C#N)ccc21` (single isomer, unassigned) [Example 111, enantiomer 2, 1-(Methyl(3-(oxazol-5-yl)-1H-indazol-5-yl)amino)-2,3-dihydro-1H-indene-5-carbonitrile], the IC50 is 100 to 1000 nM in assay [1] and less than 100 nM in assay [2].
On to `N#Cc1cc2c(nc1Cl)[C@@H](Nc1ccc3[nH]nc(-c4cnco4)c3c1)CCC2` (single isomer, unassigned) [Example 112, enantiomer 1, 2-Chloro-8-((3-(oxazol-5-yl)-1H-indazol-5-yl)amino)-5,6,7,8-tetrahydroquinoline-3-carbonitrile], for which the IC50 in assay [1] was 100 to 1000 nM; in assay [2], less than 100 nM.
